Measurements published in patent US7700657B2, “Vitamin D analogs” (Galderma Research & Development, priority 2001, dated 2010).
Where two headings read alike, the source gives them in different places.

What was measured:
[1] = test system: normal human keratinocytes; assay: Inhibition of proliferation of normal human keratinocytes (BrdU incorporation); format: cell-based; settings: 5 days culture
Method: The biological properties analogous to vitamin D can likewise be measured by the capacity of the product to inhibit the proliferation of normal human keratinocytes (NHK in culture). The product is added to NHK cultured under conditions favoring the proliferative state. The product is left in contact with the cells for five days. The number of proliferative cells is measured by incorporation of bromodeoxyuridine (BRdU) into the DNA. The protocol of this test as well as the results obtained with the compounds according to the invention are described in example 8 of the present application.
It is known that 1,25-dihydroxyvitamin D3, called calcitriol and corresponding to natural vitamin D, inhibits the proliferation of human keratinocytes in culture. The method used is the following: the normal human keratinocytes are inoculated at low density into a 24-well plate. After 4 hours, the compounds to be tested are added to the culture medium. After culturing for 5 days, the proliferation of the keratinocytes is determined by incorporation of 5-bromo-2′ deoxyuridine (BrdU) in the DNA. The quantity of BrdU incorporated is then quantified by using the Elisa test (Enzyme Linked Immuno Sorbent Essay, test marketed by Roche Molecular Biochemicals).
The inhibitory effect on the proliferation of the keratinocytes of the compounds according to the invention and of the calcitriol used as a reference compound is summarized in table II which follows.

24-hydroxylase = assay: In vivo induction of 24-hydroxylase mRNA in SKH mice after single topical application; settings: for Induction in % vs Induction Calcitriol Tested at 0.01%: topical, 8 hours; for MRNA EXPRESSION OF 24-HYDROXYLASE Induction Factor Versus Ethanol: 50 μl, epidermis 8 hours after application
Description: The agonist activity on vitamin D receptors of the compounds of the invention can be likewise evaluated “in vivo” by induction of 24-hydroxylase in SKH mice. (Kang et. al., Journal of Investigative Dermatology, 1997, 108(4), 513-518). The test protocol used as well as the results obtained with the compounds according to the invention are described in example 10 of the present application. 1]:
Consequently, the agonist activity on receptors of vitamin D of the compounds of the invention can be evaluated “in vivo” by induction of 24-hydroxylase in SKH mice.
The method used is the following: […] mice receive a single topical application of a compound to be tested in solution in ethanol at increasing concentrations. A volume of 50 μl of the product to be tested or of the vehicle alone is applied on the back of the mice with the aid of a pipette.
Other SKH mice receive a single topical application of calcitriol in solution in ethanol at increasing concentrations. A volume of 50 μl of the product to be tested or of the vehicle alone is applied on the back of the mice with the aid of a pipette.
8 hours after topical application, the mice are euthanized, the treated skin is removed and the epidermidis is separated from the dermis. The quantification of the MRNA of the 24-Hydroxylase is carried out by semiquantitative PCR. The results are standardized with respect to the expression of the mRNA of GAPDH and the values for the different concentrations of calcitriol tested and, for the different compounds of the invention tested, are expressed as an induction factor with respect to calcitriol.

[2] = test system: HL60 promyelocytic leukemia cells; assay: Induction of differentiation of HL60 cells (NBT reduction); format: cell-based; settings: 4 days culture, NBT-positive cells, read-out: Activation of Differentiation AC 50
Description: The biological properties analogous to vitamin D can likewise be measured by the capacity of the product to induce the differentiation of HL60 promyelocytic leukemia cells. The protocol of this test as well as the results obtained with the compounds according to the invention are described in example 9 of the present application.
Calcitriol induces the differentiation of promyelocytic leukemia cells (HL60) in monocytes/macrophages. This differentiation inductor effect is a well-characterized marker of cellular vitamin D activity. One of the most important antimicrobial products of macrophages is hydrogen peroxide, which can be analyzed experimentally by the reduction of NBT (Nitroblue Tetrazolium).
The method used is the following: The HL60 cells are inoculated into 6-well plates and then treated immediately with the compounds to be tested. After 4 days in culture, the cells are incubated with phorbol TPA ester and NBT for a short period and the differentiated cells, i.e., positive to NBT, are counted.

human VDR receptor = molecular target: T1, human VDR receptor (Homo sapiens, UniProt P11473); assay: Transactivation potential: VDR agonist activity, HeLa cotransfection with p240Hase-CAT reporter; format: cell-based; settings: dose giving 50% of maximum activity, HeLa cells, 18 hours treatment
T1 construct: expressed in transfected cells; host or cells: HeLa
T1 sequence (P11473 1-427): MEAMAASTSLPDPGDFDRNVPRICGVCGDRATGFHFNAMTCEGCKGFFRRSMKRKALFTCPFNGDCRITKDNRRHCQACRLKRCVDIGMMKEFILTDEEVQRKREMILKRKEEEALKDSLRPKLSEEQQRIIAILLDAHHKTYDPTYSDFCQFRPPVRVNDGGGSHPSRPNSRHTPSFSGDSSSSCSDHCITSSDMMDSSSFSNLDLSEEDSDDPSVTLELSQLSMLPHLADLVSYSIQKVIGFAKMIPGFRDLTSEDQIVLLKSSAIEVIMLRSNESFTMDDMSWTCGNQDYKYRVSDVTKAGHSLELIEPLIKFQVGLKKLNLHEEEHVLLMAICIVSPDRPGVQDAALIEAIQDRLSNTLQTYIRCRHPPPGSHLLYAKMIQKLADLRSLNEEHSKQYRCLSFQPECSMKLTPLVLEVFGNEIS
Description: By way of example, the VDR agonist activity can be tested on the HeLa cell line by cotransfection of an expression vector for the human VDR receptor and of the reporter plasmid p240Hase-CAT. The agonist activity can be characterized in this cotransfection system by the determination of the dose necessary to obtain 50% of the maximum activity of the product (AC50). The detail of the protocol of this test as well as the results obtained with the compounds according to the invention are described in example 7 of the present application.
The VDR agonist activity can be tested on the HeLa cell line, by cotransfection of an expression vector of the human VDR receptor and of the p240Hase-CAT reporter plasmid which contains the region −1399 to +76 of the rat 24-hydroxylase promoter, cloned upstream of the phase coding for the chloramphenicol acetyltransferase (CAT) gene. 18 hours after cotransfection, the test product is added to the medium. After treatment for 18 hours, the measurement of the CAT activity of the cell lysates is carried out by means of an Elisa test (Enzyme Linked Immuno Sorbent Essay, test marketed by Roche Molecular Biochemicals). The agonist activity can be characterized in this cotransfection system by the determination of the dose necessary in order to obtain 50% of the maximum activity of the product (AC50).

[3] = compound tested at 0.01% (weight/volume)

In the case of “1,25-dihydroxyvitamin D3 [Calcitriol, reference compound]”, the IC50 [1] is reported as 14 nM, the “Induction in % vs Induction Calcitriol Tested at 0.01%” value (24-hydroxylase; [3]) is reported as 100% and the “MRNA EXPRESSION OF 24-HYDROXYLASE Induction Factor Versus Ethanol” value (24-hydroxylase; topical 0.0001% (weight/volume) in ethanol) is reported as 6.7. The “MRNA EXPRESSION OF 24-HYDROXYLASE Induction Factor Versus Ethanol” value (24-hydroxylase; topical 0.001% (weight/volume) in ethanol) was 10.3, the “MRNA EXPRESSION OF 24-HYDROXYLASE Induction Factor Versus Ethanol” value (24-hydroxylase; topical 0.01% (weight/volume) in ethanol) was 20.1 and the “MRNA EXPRESSION OF 24-HYDROXYLASE Induction Factor Versus Ethanol” value (24-hydroxylase; topical 0.1% (weight/volume) in ethanol) was 26. It also gave an AC50 [2] of 7 nM.

In the case of CC/C(=C\C=C\C(O)(CC)CC)c1cccc(CCc2ccc(CO)c(CO)c2)c1 [Example 1, (4E,6E)-7-{3-[2-(3,4-Bis-hydroxymethylphenyl)ethyl]-phenyl}-3-ethylnona-4,6-dien-3-ol], the IC50 ([1]; Keratinocyte, 120 h) is reported as 45 nM, the “Induction in % vs Induction Calcitriol Tested at 0.01%” value (24-hydroxylase; compound tested at 0.1% (weight/volume)) is reported as 108% and the AC50 ([2]; Homo sapiens, HL-60, 96 h) is reported as 56 nM. For the same compound, the AC50 (human VDR receptor) was 39 nM.

In the case of CC/C(=C\C#CC(O)(C(F)(F)F)C(F)(F)F)c1cccc(OCc2ccc(CO)c(CO)c2)c1 [Example 2, (E)-6-[3-{3,4-Bis-hydroxymethylbenzyloxy)phenyl]-1,1,1-trifluoro-2-tifluoromethyloct-5-en-3-yn-2-ol], the IC50 ([1]; Keratinocyte, 120 h) is reported as 153 nM, the “Induction in % vs Induction Calcitriol Tested at 0.01%” value (24-hydroxylase; [3]) is reported as 58% and the AC50 (human VDR receptor) is reported as 77 nM.

In the case of CC/C(=C\C=C\C(O)(C(F)(F)F)C(F)(F)F)c1cccc(OCc2ccc(CO)c(CO)c2)c1 [Example 3, (3E,5E)-6-[3-(3,4-Bis-hydroxymethylbenzyloxy)pheny]-1,1,1-trifluoro-2 trifluoromethylocta-3,5-dien-2-ol], the IC50 ([1]; Keratinocyte, 120 h) is reported as 35 nM, the “Induction in % vs Induction Calcitriol Tested at 0.01%” value (24-hydroxylase; compound tested at 0.001% (weight/volume)) is reported as 59% and the “activity (24-hydroxylase induction) compared with calcitriol” value (24-hydroxylase; in words) is reported as “very superior”. For the same compound, the AC50 ([2]; Homo sapiens, HL-60, 96 h) was 7 nM and the AC50 (human VDR receptor) was 7 nM.

For CC/C(=C\C#CC(O)(C(F)(F)F)C(F)(F)F)c1cccc(CCc2ccc(CO)c(CO)c2)c1 [Example 4, (E)-6-{3-[2-(3,4-Bis-hydroxymethylphenyl)ethyl]phenyl}-1,1,1-trifluoro-2-trifluoromethyloct-5-en-3-yn-2-ol], the IC50 ([1]; Keratinocyte, 120 h) was 29 nM, the “Induction in % vs Induction Calcitriol Tested at 0.01%” value (24-hydroxylase; [3]) was 89% and the AC50 (human VDR receptor) was 16 nM.

CC/C(=C\C=C\C(O)(C(F)(F)F)C(F)(F)F)c1cccc(CCc2ccc(CO)c(CO)c2)c1 [Example 5, (3E,5E)-6-{3-[2-(3,4-Bis-hydroxymethylphenyl)ethyl]-phenyl}-1,1,1-trifluoro-2-trifluoromethylocta-3,5-dien-2-ol] was tested, and the IC50 ([1]; Keratinocyte, 120 h) was 8 nM, the “Induction in % vs Induction Calcitriol Tested at 0.01%” value (24-hydroxylase; compound tested at 0.0003% (weight/volume)) was 106% and the AC50 ([2]; Homo sapiens, HL-60, 96 h) was 5 nM. For the same compound, the AC50 (human VDR receptor) was 3 nM.
